In US7259002B2, “Polynucleotide encoding a novel acyl coenzyme A, monoacylglycerol acyltransferase-3 (MGAT3), and uses thereof” (Bristol-Myers Squibb Company, priority 2003, dated 2007):
Blank lines part the entries; values can stand above or below the molecule they belong to.

Columns and labels:
Format in all cases: biochemical
[1] = target: T1, recombinant human MGAT3 (Homo sapiens, UniProt Q86VF5); experiment: Substrate concentration titration and substrate specificity in the MGAT enzyme assay; conditions: for optimal substrate concentration: 10 μg membrane fractions, 10 min at 37° C.; for substrate optimum for acyl-CoAs: acyl-CoAs at 50 μM, 200 μM sn-2-[3H]monooleoylglycerol tracer
T1 construct: predicted to contain the entire open reading frame, was chosen for further study; made in house; host or cells: Spodoptera frugiperda Sf9 insect cells (baculovirus, Bac-to-Bac); 100,000 x g membrane fractions
T1 sequence (Q86VF5 1-341): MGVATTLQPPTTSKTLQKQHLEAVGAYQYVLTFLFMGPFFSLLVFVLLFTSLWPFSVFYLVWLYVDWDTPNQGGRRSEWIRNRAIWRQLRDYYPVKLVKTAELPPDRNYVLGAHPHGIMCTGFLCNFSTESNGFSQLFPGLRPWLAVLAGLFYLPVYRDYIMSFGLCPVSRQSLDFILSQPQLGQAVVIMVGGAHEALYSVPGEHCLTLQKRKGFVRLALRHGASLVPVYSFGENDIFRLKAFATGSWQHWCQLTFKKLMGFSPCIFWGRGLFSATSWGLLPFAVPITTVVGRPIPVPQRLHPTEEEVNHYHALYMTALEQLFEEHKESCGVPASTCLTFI
Method: Sf9 cells were setup and infected with either wild type or recombinant MGAT3 viruses as in FIG. 4. After 2 days of infection, the cells were harvested, membrane fractions were prepared and aliquots of membranes were subjected to MGAT enzyme assays with various concentrations of substrates. For A, 200 μM sn-2-monooleoylglycerol and various amounts of [14C]oleoyl coenzyme A (20,000 dpm/nmol) and for B, 50 μM [14C]oleoyl coenzyme A (20,000 dpm/nmol) and various amounts of sn-2-monooleoylglycerol were incubated with 10 μg membrane fractions for 10 min at 37° C. Lipid bands corresponding to TAG and DAG were cut from TLC sheets and counted with scintillation counter. Activities were corrected values of recombinant membranes deducted by values of wild type membranes. Duplicated assays were conducted and the standard deviations were smaller than 10% of the mean.
Sf9 cells were setup and infected either with wild type, recombinant MGAT3 or with DGAT2 viruses as in FIG. 4. Aliquots of membrane fractions (10 μg) were subjected to MGAT assays to determine A) MAG stereoisomer specificity and B) preference of fatty acyl-CoAs. In A, 50 μM [14C]oleoyl coenzyme A (20,000 dpm/nmol) and 200 μM of sn-1-monooleoyglycerol (1-MAG), sn-2-monooleoyglycerol (2-MAG), or […] (3-MAG); and in B, 200 μM sn-2-[3H]monooleoylglycerol (20,000 dpm/nmol) and different acyl-CoAs at 50 μM were incubated with 10 μg membrane fractions at 37° C. for 10 min. C2, acetyl-CoA; M, malonyl-CoA; C4:0, butyryl-CoA; C12:0, lauroyl-CoA; C16:0, palmitoyl-CoA; C18:0, stearoyl-CoA; C20:0, arachidoyl-CoA; C18:1, oleoyl-CoA; C18:2, linoleoyl-CoA; C20:4, arachidonoyl-CoA.
MGAT activities were assayed for 5-10 min at 37° C. in a final volume of 200 μl according to a protocol modified from Coleman (Coleman, R. A. (1992) Methods Enzymol. 209:98-104). Each reaction contained 10 μg of membrane proteins in Assay Buffer (100 mM Tris-HCl, pH7.5, 5 mM MgCl2, 1.25 mg/ml BSA, 250 mM sucrose, 800 μM phophatidylcholine liposomes). Generally, 50 μM of acyl coenzyme A and 200 μM sn-2-monoacylglycerol (delivered in acetone, final acetone concentration <2%) were used. Reactions were started by adding protein and terminated by adding 4 ml chloroform/methanol (2/1, v/v). The extracted lipids were dried, separated by thin layer chromatography (TLC) with hexane/ethyl ether/acetic acid (85/15/0.5, v/v/v).
Identities of triacylglycerol (TAG), diacylglycerol (DAG), monoacylglycerol (MAG), free fatty acid (FFA) and other lipids were verified with lipid standards (Sigma) after staining with iodine vapor. The specific enzyme activities were traced by measuring the incorporation of [14C]oleoyl-CoA (20,000 dpm/nmol) or sn-2-[3H] monooleolyglycerol (20,000 dpm/nmol). Chromatograms were also analyzed with STORM PhosphoImager.

[2] = MGAT enzyme assay (TLC, scintillation counting) of membranes from Sf9 cells expressing the recombinant enzyme; conditions: 50 μM [14C]oleoyl coenzyme A
Method: Sf9 cells were setup and infected with wild type or recombinant MGAT3 viruses as in FIG. 4. Membrane extracts were prepared from the cells with various post infection times. Aliquots of membrane fractions were either subjected to A) immunoblot analysis with anti-FLAG IgG; or to B) TLC enzyme assays. For substrates, 200 μM sn-2-monooleoylglycerol and 50 μM [14C]oleoyl coenzyme A (20,000 dpm/nmol) were incubated with 10 μg membrane fractions for 6 min at 37° C. After TLC separation, the DAG and the TAG bands were cut from TLC sheets and subjected to scintillation counting. The activities were expressed as nmol/min/mg protein. Values were averages of duplicated determinations and the standard deviations were smaller than 10% of the mean.
The predicted coding sequence of human MGAT3 was fused with an NH2-terminal FLAG epitope (MGDYKDDDDG, (SEQ ID NO:21) epitope underlined) and expressed in Spodoptera frugiperda (Sf9) insect cells using Bac-to-Bac™ kit (Life Technologies) according to manufacturer's instructions. Recombinant FLAG-human-DGAT2 was expressed in the same manner as a control. Generally, cells were infected with viruses (MOI>3) for 2 days. After harvest, cells were washed with PBS, and then homogenized with a probe sonicator in Homogenization Buffer (10 mM Tris-HCl, pH 7.4, 250 mM sucrose, 1× Protease Inhibitor Cocktail [Roche]). Membrane fractions (100,000×g pellets) were stored at −80° C. until use for enzymatic assays. For immunoblot analysis, aliquots of 2 μg of membrane proteins were loaded on SDS-PAGE and probed with an anti-FLAG M2 IgG (Sigma).
MGAT activities were assayed for 5-10 min at 37° C. in a final volume of 200 μl according to a protocol modified from Coleman (Coleman, R. A. (1992) Methods Enzymol. 209:98-104). […]
Identities of triacylglycerol (TAG), diacylglycerol (DAG), monoacylglycerol (MAG), free fatty acid (FFA) and other lipids were verified with lipid standards (Sigma) after staining with iodine vapor. […] Chromatograms were also analyzed with STORM PhosphoImager.

[3] = DGAT activity: exogenous DAG assayed directly with recombinant membranes (TLC); conditions: Sf9 membranes, [14C]oleoyl-CoA tracer
[4] = Sf9 cell membranes, 200 μM sn-2-monooleoylglycerol, 6 min at 37° C., highest value of time course

Molecule: CCCCCCCCCCCCCCCC(=O)SCCNC(=O)CCNC(=O)[C@H](O)C(C)(C)COP(=O)(O)OP(=O)(O)OC[C@H]1O[C@@H](n2cnc3c(N)ncnc32)[C@H](O)[C@@H]1OP(=O)(O)O [palmitoyl-CoA]
substrate optimum for acyl-CoAs [1]: best substrates

B1: MGAT3: monoacylglycerol acyltransferase-3, 341 amino acid protein of SEQ ID NO:2 (protein, listed as Homo Sapiens)
chain: T1 sequence (Q86VF5 1-341)
specific activity for DAG [2, 4]: 22.8 nmol/min/mg
specific activity for TAG [2, 4]: 9.3 nmol/min/mg
acylation of exogenous DAG to TAG (DGAT activity) [3]: able to acylate DAG to form TAG directly

B2: DGAT2: recombinant human diacylglycerol acyltransferase 2 expressed in the same manner as a control (protein, listed as Homo Sapiens)
chain: MKTLIAAYSGVLRGERQAEADRSQRSHGGPALSREGSGRWGTGSSILSALQDLFSVTWLNRSKVEKQLQVISVLQWVLSFLVLGVACSAILMYIFCTDCWLIAVLYFTWLVFDWNTPKKGGRRSQWVRNWAVWRYFRDYFPIQLVKTHNLLTTRNYIFGYHPHGIMGLGAFCNFSTEATEVSKKFPGIRPYLATLAGNFRMPVLREYLMSGGICPVSRDTIDYLLSKNGSGNAIIIVVGGAAESLSSMPGKNAVTLRNRKGFVKLALRHGADLVPIYSFGENEVYKQVIFEEGSWGRWVQKKFQKYIGFAPCIFHGRGLFSSDTWGLVPYSKPITTVVGEPITIPKLEHPTQQDIDLYHTMYMEALVKLFDKHKTKFGLPETEVLEVN
modifications: FLAG tag
notes: recombinant human diacylglycerol acyltransferase 2 expressed in the same manner as a control
TAG synthesis from MAG stereoisomers ([2]; Sf9 membranes, 1-MAG, 2-MAG or 3-MAG at 200 μM): able to synthesize similar amount of TAG using three different MAG stereoisomers

Other lines, results leading:

optimal substrate concentration [1]: 200 µM
MAG stereoisomer specificity (DAG synthesis) ([1]; 200 μM MAG, 50 μM [14C]oleoyl coenzyme A): prefers 2-MAG as the substrate
Molecule: CCCCCCCC/C=C\CCCCCCCC(=O)OC(CO)CO [2-monooleoylglycerol, sn-2-monooleoylglycerol]

optimal substrate concentration [1]: 50 µM
substrate optimum for acyl-CoAs [1]: best substrates
Molecule: CCCCCCCC/C=C\CCCCCCCC(=O)SCCNC(=O)CCNC(=O)[C@H](O)C(C)(C)COP(=O)(O)OP(=O)(O)OC[C@H]1O[C@@H](n2cnc3c(N)ncnc32)[C@H](O)[C@@H]1OP(=O)(O)O [oleoyl-CoA]
